The record followed here is US9770469B2, “Methods of reprogramming renal cells” (Tel HaShomer Medical Research Infrastructure and Services …, priority 2009, dated 2017).

For assay [1], the system named is adult kidney cells. Put plainly: Methylation immunoprecipitation (MeDIP) of Six2 and Wt1 promoters. The format is cell-based, human. On the procedure:
[…] (MeDIP): 10 μg of sonicated genomic DNA (100-400 bp in length) was denatured, incubated 0/N at 4° C. with […] of anti-methyl cytosine antibody (Diagenode, Belgium), and subsequently with 60 μl of protein A fast flow beads (Upstate Biotechnologies) for 2 hours at 4° C. The beads were washed and incubated with digestion buffer (50 mM Tris-HCl pH 8.0, 10 mM EDTA, 0.5% SDS) and proteinase K for 3 hours and the DNA extracted by phenol-chloroform and EtOH precipitation. The samples were tested by quantitative RT PCR with the indicated primers at table 2. The sonicated DNA served as input.

In assay [2] the test system is human adult kidney cells. Put plainly: Flow cytometry of renal progenitor surface markers after VPA. The conditions noted are these: 24 h 4 mM VPA, FACS. Format: cell-based. On the procedure:
(§1) Cell Treatment: Cells were treated for 24 hours with growth medium supplemented with 1, 2, or 4 mM VPA (Sigma) or with H2O for control sample. Otherwise, cells were treated for 24 hours with growth medium supplemented with the combination of 75 μM TSA (Sigma) and 250 μM 5-AZA (Sigma) or with 100% Ethanol and Acetic Acid (Acetic Acid: H2O 1:1) for control sample. […] 24 hours prior to harvesting VPA at a concentration of 4 mM was added to the cell culture.
Flow Cytometry: Cells were detached from culture plated with non-enzymatic cell dissociation solution (Sigma-Aldrich). Cells (1×10^5 in each reaction) were suspended in 50 μl of FACS buffer [0.5% BSA and 0.02% sodium azid in PBS (Sigma-Aldrich and Invitrogen, respectively)] and blocked with FcR Blocking Reagent (MiltenyiBiotec) and human serum (1:1) for 15 minutes. Cells were then incubated for 45 minutes with the following primary antibodies: CD24-PE, NCAM1-PE, (both from eBioscience), CD133-APC, PSA-NCAM (both from MiltenyiBiotec), FZD7-biotin, NTRK2 (both from R&D Systems) or a matching isotype control. Cells were washed with FACS buffer, and incubated for 30 minutes with a secondary antibody if needed: goat anti mouse Streptavidin-APC (BD) or goat anti mouse Alexa Fluor 647 (Invitrogen). Cell's labeling was detected using FACSCalibur (BD). Flow cytometry results were analyzed using FlowJo analysis software. Viable cells were gated by both their FSC/SSC profile and 7AAD (eBioscience) exclusion.
A general note: In flow cytometry, cells or beads pass a laser one at a time.

In assay [3] the test system is human fetal kidney cells. Put plainly: Western blot for Six2 and Wt1 after VPA. The format is cell-based. The conditions noted are these: 24 h after VPA exposure. On the procedure: as §1
(§2) Western Blot: AK, FK (treated and untreated) and Melanoma cells were harvested with Tripsin/EDTA. Cell extracts were prepared with lysis buffer (50 mM Tris-HCl, 150 mM NaCl, 0.1 mM EDTA, 0.5 mM DTT, 1.5 mM MgCl, 0.5% Triton-X) and their concentrations were detected by BCA protein assay kit (Thermo scientific). 100 μg of total proteins were heated at 95° C. for 5 min with laemmli sample buffer (Bio-rad) and then were loaded on SDS-10% polyacrylamide gel. After electrophoresis, proteins were transferred to nitrocellulose membrane that was blocked with 5% nonfat dry milk overnight at 4° C. The membrane was reacted with the required antibodies, namely Six2 (Affinity Bioreagents), WT1 (Santa Cruz), goat anti-rabbit IgG (Jackson). The membrane was reacted with ECL substrate (Thermo scientific) and was exposed to medical x-ray film (Fuji).
A general note: Immunoblotting shows a protein as a band on a membrane.

Assay [4] deals with human adult kidney cells. Briefly: Western blot for Six2 and Wt1 after VPA. Format: cell-based. The conditions noted are these: 24 h after VPA exposure. On the procedure: as §1, §2
In assay [5] the test system is adult kidney cells. Put plainly: Chromatin immunoprecipitation (ChIP) of Six2 and Wt1 promoters. The format is cell-based, human. The conditions noted are these: VPA 4 mM. On the procedure:
Chromatin Immunoprecipitation Assay (ChIP): 10×10^6 cells adult kidney cells were grown. Untreated cells (control) or cells treated with VPA (4 mM) were cross-linked with 1% formaldehayde for 10 min at RT in culture medium. The cells were washed and harvested in cold phosphate-buffered saline (PBS) containing protease inhibitors (Complete mini, Roche Applied Science) and Pepstatin (Sigma). The cells were then washed with Buffer B (20 mM Hepes pH 7.6, 0.25% Triton-x, 10 mM EDTA, 0.5 mM EGTA) and Buffer C (50 mM Hepes pH 7.6, 150 mM NaCl, 1 mM EDTA, 0.5 mM EGTA) were resuspended in 300 μl of SDS lysis buffer [1% SDS, 10 mM EDTA and 50 mM Tris-HCl (pH 8.1)], and incubated on ice for 10 minutes. Lysates were sonicated with 8×10 second bursts and debris were removed by centrifugation for 10 minutes at 1000 g, at 4° C. Supernatants were diluted 10-fold in ChIP dilution buffer [0.01% SDS, 1.1% Triton X-100, 1.2 mM EDTA, 16.7 mM Tris-HCl (pH 8.1) and 167 mM NaCl] and pre-cleared by incubating with 40 μl of protein A+salmon sperm beads (Upstate Biotechnology) for 30 minutes at 4° C. Beads were pelleted for 1 minute at 1000 g at 4° C. A total of 10 μl of the supernatant was saved as input, and the rest was divided into equal aliquots and incubated by rocking with either control Ab (IgG) or with of specific antibodies; Trimethyl-Histon 3K27 antibody (Upstate Biotechnology), anti acetylatedhistone H4 (Upstate Biotechnology) over night at 4° C. A total of 60 μl of protein A+salmon sperm beads was added, and the samples were rocked for 2 hours at 4° C. The complexes on the beads were washed for 5 minutes at 4° C. with the following buffers: low salt [0.1% SDS, 1% Triton X-100, 2 mM EDTA, 20 mM Tris-HCl (pH 8.1) and 150 mM NaCl], high salt [0.1% SDS, 1% Triton X-100, 2 mM EDTA, 20 mM Tris-HCl (pH 8.1), 500 mM NaCl], LiCl wash [0.25 M LiCl, 1% Nonidet P-40, 1% deoxycholate, 1 mM EDTA and 10 mM Tris-HCl (pH 8.1)], and twice with TE [10 mM Tris-HCl and 1 mM EDTA (pH 8.0)]. Immune complexes were eluted twice with 200 μl of elution buffer [1% SDS and 0.1 M NaHCO3]for 15 minutes at room temperature. The samples were de-crosslinked by adding 16 μl of 5 M NaCl, 8 μl of 0.5 M EDTA (pH 6.5) and 16 μl of 1M Tris-HCl (pH 8.1) and incubated O.N at 65° C. Proteinase K (10 mg/ml) and the samples were incubated for additional 2 hours at 55° C. Immunoprecipitated DNA was recovered by phenol/chloroform extraction and ethanol precipitation and was analyzed by quantitative RT PCR.

On to `CCCC(CCC)C(=O)O` [VPA, valproic acid], for which the “DNA methylation on Wt1 promoter” value in assay [1] (VPA treatment) is listed as “minimally effected”. The “DNA methylation at the Six2 promoter” value in assay [1] (with or without VPA) is given as “DNA hypomethylation at the Six2 promoter loci regardless of VPA treatment”. Besides, the “PSA-NCAM surface expression elevation” value in assay [2] (especially in the adult kidney) is reported as 5-10 fold. Further, in assay [2] (adult kidney cells), the CD133 surface expression result is “milder changes” and the “NCAM surface expression levels” value was “significant upregulation”. The Six2 protein levels result in assay [3] (4 mM) is “increment”. For the same compound, in assay [3] (2 and 4 mM), the Wt1 protein levels entry is recorded as “no changes”. For the same compound, in assay [4] (4 mM), the Six2 protein levels result was “increment”. In addition, the Wt1 protein levels result in assay [4] (2 and 4 mM) is recorded as “no changes”. Besides, in assay [5], the “H3K4me at Six2 promoter regions” value is given as “significant increases”, the “H3K4me elevation in the Wt1 promoter region” value is reported as “not”, the “H3K27me in the Wt1 promoter region” value was “modest elevation” and the “H3K27me levels at Six2 promoter regions” value is “no change”. Further, the “acetylated histones H4 at Six2 promoter regions (-92, -412, -541, -731, -955, -1157)” value in assay [5] is reported as “significantly increased”.
